According to article PMC10003747, “A Novel Homodimer Peptide–Drug Conjugate Improves the Efficacy of HER2-Positive Breast Cancer Therapy” (International Journal of Molecular Sciences, 2023):
pIC50: −log10 of the molar value.

Columns and labels:
[1] = In vitro DOX release from the PDC (dialysis in PBS); type: physicochemical; details: fluorescence at 589 nm
Excerpt: (§1) Based on the specific acidic tumor microenvironment (pH5.4–7.0), an acid-responsive linker was designed to undergo acid hydrolysis after cellular uptake, releasing the drug into endosomes or lysosomes to achieve site-specific delivery. It is theoretically possible that a HPD with an acid-sensitive hydrazone bond can display a regulated release behavior when the external pH value is altered. As observed from the drug release profile in Figure 3a, the PDC remains structurally stable in PBS at a pH of 7.4, as only about 35% of DOX is released within 24 h. In contrast, when the pH of PBS is reduced to 5.8, there is an explosive release of DOX in acidic media due to the pH-sensitive hydrolysis of the […] bond between DOX and the EMCH linker. […] Figure 3b illustrates that the cytotoxicity of the PDC and free DOX on SKBR-3 cells augmented with prolonged incubation time. When the equivalent concentration was 1 μM, the viability of SKBR-3 cells in the PDC group was 26.3%. […] To determine if our novel conjugate could enhance the effect of DOX through PEGylation and HER2-receptor-mediated internalization, we tested the cytotoxic effect of the PDC on MCF-7 and SKBR-3 breast cancer cells.
To quantify the amount of DOX released from the PDC, 1 mg of the substance was dissolved in 2 mL of ultra-pure water and placed into a dialysis bag (MWCO 1000 Da). This bag was then transferred to a tube containing 10 mL of PBS solution with varying pH values (7.4 and 5.8). The tube was stirred at 37 °C in the dark and samples of the PBS solution were collected at different intervals. Subsequently, a new 10 mL of PBS was added to the tube after each sample. The samples were analyzed for released DOX concentration using a fluorescence spectrophotometer at 589 nm and the DOX concentration was calculated based on a standard curve. The PDC was incubated with human plasma (final peptide concentration of 50 μM) for 0, 2, 4, 8, 12, 24, and 48 h in order to assess the stability of the conjugate. Then, […] of the solution was mixed with […] of methanol to terminate enzymatic hydrolyses. After centrifugation at 13,000× g for 10 min, the supernatant was collected and the intact percentage of the PDC was detected by HPLC [19].

[2] = system: BALB/c nude mice; assay: In vivo safety: body weight and H&E staining of major organs; details: 5 mg/kg equivalent DOX i.v., five times every two days; for body weight change versus PBS group: n = 4; for H&E histology of major organs: compared with PBS group
Description: (§2) In vivo anti-tumor studies were evaluated by using SKBR-3 xenografted (BALB/c nude) mice treated with the PDC, free DOX, or saline. […] Additionally, histological examination of the tumors was performed. […] A TUNEL assay indicated a greater number of apoptotic cells after treatments with the PDC group compared to the free DOX group and reduced the offtarget effects (Figure 5d).
Good biocompatibility and the acceptable biosafety of a drug are essential for its biological application. […] The PDC had higher in vivo anti-tumor efficacy than DOX without apparent toxicities.
(§3) In this study, a total of 12 female BALB/c mice (22–24 g) were used, and all animal experiments were conducted in compliance with the ethical guidelines approved by the ethics committee of Fujian Medical University. Approximately 2 × 10^6 SKBR-3 cells were injected subcutaneously in the right hind limb of the nude mice. Upon the tumor reaching a volume of around 100 mm^3, the mice were randomly allocated into three groups (n = 4) and administered through the tail vein with PBS, free DOX solution, and PDC solution (5 mg/kg equivalent DOX), respectively, five times every two days. Saline was used as a negative control. After each administration, the size and weight of the tumor were assessed. Subsequently, the mice were euthanized, and their tumor tissues and other major organs were dissected and preserved with 4% formaldehyde. Paraffin sections were then produced, and the fixed paraffin-embedded tissues were sliced into 5 μm sections for hematoxylin and eosin (H&E) and TUNEL (terminal deoxynucleotidyl transferase dUTP nick-end labeling) analyses.

[3] = system: SKBR-3 cells; assay: Cellular uptake and lysosome colocalization by CLSM; type: cell-based, human
Description: To assess the uptake efficiency of the PDC in tumor cells, human breast cancer cell lines SKBR-3 (high expression of HER2) were used as positive cells, and the MCF-7 cell line was used as a negative control. […] Along with the incubation time, DOX escaped from the lysosomes, and brighter red fluorescence was detected in the nuclei after 8 h of incubation (Figure 4a). It has been observed that peptide conjugates in the acidic environment of endosomes/lysosomes undergo hydrolysis at the acid-response hydrazone linker, thereby releasing DOX into cells, which is in line with prior reports. […] The lysosomal escape ability was evaluated by the localization of the PDC and lysosomes in SKBR-3 cells (Figure 4c), evidenced by the separation of red (DOX) and green (LysoTracker) fluorescence.
Cultures of SKBR-3 and MCF-7 cells were established in DMEM medium supplemented with 10% fetal bovine serum, 100 U/mL penicillin, and 100 μg/mL streptomycin at 37 °C and 5% CO2. Approximately 1 × 10^5 cells/mL were seeded into culture dishes and incubated overnight. Subsequently, 0.5 mg/mL PDC was added and incubated for 2–8 h in conjunction with an equal amount of free DOX as a control. […] Finally, confocal fluorescence images were obtained using a Zeiss 710 system. […]

[4] = system: SKBR-3 xenografted (BALB/c nude) mice; assay: In vivo anti-tumor study; details: SKBR-3 xenograft, 5 mg/kg equivalent DOX, tail vein, five times every two days, n = 4, day 14
Description: as §2
as §3, with “Paraffin sections were then produced, and the fixed paraffin-embedded tissues were sliced into 5 μm sections for hematoxylin and eosin (H&E) and TUNEL (terminal deoxynucleotidyl transferase dUTP nick-end labeling) analyses.” left out

[5] = system: SKBR-3 cells; assay: Cytotoxicity assay (CCK8 kit); type: cell-based, human; details: for pIC50: 48 h incubation, 0 to 1 μM, CCK8, from dose response log curves
Excerpt: as §1
Cultures of SKBR-3 and MCF-7 cells were established in DMEM medium supplemented with 10% fetal bovine serum, 100 U/mL penicillin, and 100 μg/mL streptomycin at 37 °C and 5% CO2. Approximately 1 × 10^5 cells/mL were seeded into culture dishes and incubated overnight. Subsequently, 0.5 mg/mL PDC was added and incubated for 2–8 h in conjunction with an equal amount of free DOX as a control. After washing three times with PBS, Hoechst 33342 and LysoTracker Green DND-26 were added to stain the nucleus and lysosome for 15 min, followed by three additional washes with PBS. Finally, confocal fluorescence images were obtained using a Zeiss 710 system. SKBR-3 cells were seeded in a 96-well culture plate at a density of 5000 cells per well and incubated for 24 h. Afterwards, cytotoxicity investigations were conducted by incubating the cells with the PDC and free DOX (in concentrations from 0 to 1 μM) for 48 h. Then, the CCK8 kit was used to detect cell survival.

[6] = Stability of the PDC in human serum/plasma by HPLC; type: in vitro ADME; details: human serum (methods: human plasma), 37 °C
Excerpt: HP (calcd Mw: 3183.7) was successfully synthesized by using solid-phase peptide synthesis (SPPS), and the peptides were cleaved and purified by HPLC (Figure S2) afterward and verified by using electrospray ionization mass spectrometry examinations (Figure 2a). […] The mass charge ratio (m/z) obtained by the experiment is consistent with the theoretical m/z. […] Polyethylene glycol (PEG) has been widely used to modify small molecules to slow renal clearance and to increase the half-life. It is essential that the PDC be maintained in a steady circulation to prevent pre-release of cytotoxic payloads, resulting in systemic toxicity. […] To assess plasma stability, the PDC was incubated with human serum at 37 °C from 0 to 48 h, and aliquots were taken at different time points and analyzed by using HPLC. […]
To quantify the amount of DOX released from the PDC, 1 mg of the substance was dissolved in 2 mL of ultra-pure water and placed into a dialysis bag (MWCO 1000 Da). […] The samples were analyzed for released DOX concentration using a fluorescence spectrophotometer at 589 nm and the DOX concentration was calculated based on a standard curve. […] After centrifugation at 13,000× g for 10 min, the supernatant was collected and the intact percentage of the PDC was detected by HPLC [19].

Structure (SMILES) | DOX released within 8 h, pH 5.8 ([1]; PBS pH 5.8, 37 °C, dialysis MWCO 1000 Da, 8 h) [%] | DOX released within 24 h, pH 5.8 ([1]; PBS pH 5.8, 37 °C, dialysis MWCO 1000 Da, 24 h) [%] | DOX released, pH 5.8, start of the rise ([1]; PBS pH 5.8, 37 °C, dialysis MWCO 1000 Da, early value, time not given) | DOX released within 24 h, pH 7.4 ([1]; PBS pH 7.4, 37 °C, dark, dialysis bag MWCO 1000 Da, 1 mg in 2 mL water against 10 mL PBS, 24 h) | body weight change versus PBS group [2] | H&E histology of major organs [2] | uptake of the PDC in SKBR-3 versus MCF-7 cells ([3]; CLSM, Figure S3, HER2 negative MCF-7) | cellular uptake relative to free DOX ([3]; HER2-positive SKBR-3 cells) [times] | reduction of tumor growth on day 14 post treatment [4] [%] | cytotoxic effect on SKBR-3 versus MCF-7 breast cancer cells ([5]; 48 h, Figure S4, HER2 high-expression SKBR-3 vs MCF-7) | IC50 of the PDC relative to free DOX ([5]; SKBR-3 cells, 48 h) | pIC50 ([5]; SKBR-3 cells) | viability of SKBR-3 cells ([5]; equivalent concentration 1 μM, 48 h, CCK8) [%] | half-life at 50 μM ([6]; 50 μM final peptide concentration, 0-48 h, methanol quench, intact PDC by HPLC, read-out: half-life of the conjugate (converted)) [min] | remaining at 48 h, 50 μM ([6]; 50 μM, 48 h incubation, HPLC, read-out: intact conjugate remaining at 48 h) [%]
COc1cccc2c1C(=O)c1c(O)c3c(c(O)c1C2=O)C[C@@](O)(C(CO)=NNC(=O)CCCCCN1C(=O)CC(SC[C@H](NC(=O)CCOCCOCCOCCOCCNC(=O)[C@H](CCCCNC(=O)CCOCCOCCOCCOCCNC(=O)[C@H](CCCCN)NC(=O)[C@H](CC(C)C)NC(=O)[C@H](CCCNC(=N)N)NC(=O)[C@H](CC(C)C)NC(=O)[C@H](CCC(=O)O)NC(=O)[C@H](Cc2c[nH]c4ccccc24)NC(=O)[C@H](CC(N)=O)NC(=O)[C@@H](N)CCCNC(=N)N)NC(=O)CCOCCOCCOCCOCCNC(=O)[C@H](CCCCN)NC(=O)[C@H](CC(C)C)NC(=O)[C@H](CCCNC(=N)N)NC(=O)[C@H](CC(C)C)NC(=O)[C@H](CCC(=O)O)NC(=O)[C@H](Cc2c[nH]c4ccccc24)NC(=O)[C@H](CC(N)=O)NC(=O)[C@@H](N)CCCNC(=N)N)C(=O)O)C1=O)C[C@@H]3O[C@H]1C[C@H](N)[C@H](O)[C@H](C)O1 (stereo partly shown) [PDC] | 78 | ~90 | around 20% | about 35% | no noteworthy distinction in body weight | no morphological aberrations in organ tissues | higher uptake rate | 2.9 | 51.1 ± 3.1 | significantly more cytotoxic in the HER2 high-expression cell lines | three times less | 6.84 | 26.3 | ~1440 | ~15
COc1cccc2c1C(=O)c1c(O)c3c(c(O)c1C2=O)C[C@@](O)(C(=O)CO)C[C@@H]3O[C@H]1C[C@H](N)[C@H](O)[C@H](C)O1.Cl [free DOX, doxorubicin hydrochloride, reference compound] | – | – | – | – | significantly decreased | clear cardiotoxicities | – | – | 23.13 ± 2.4 | – | – | 6.39 | – | – | –
